From ChEMBL document CHEMBL4393707, “Synthesis and evaluation of new quinazolin-4(3H)-one derivatives as potent antibacterial agents against multidrug resistant Staphylococcus aureus and Mycobacterium tuberculosis” (Eur J Med Chem, 2019)
Converted amounts (≈) assume the structure as drawn. The source made the active and inactive calls. No cut-off for these calls is given here.

What was measured:
Acinetobacter baumannii = assay: Antibacterial activity against Acinetobacter baumannii BAA1605 incubated for 16 to 18 hrs by broth microdilution assay; type: functional
Klebsiella pneumoniae = assay: Antibacterial activity against Klebsiella pneumoniae ATCC BAA-1705 incubated for 16 to 18 hrs by broth microdilution assay; type: functional
Staphylococcus aureus [1] = assay: Antibacterial activity against Staphylococcus aureus ATCC 29213 incubated for 16 to 18 hrs by broth microdilution assay; type: functional
Escherichia coli = assay: Antibacterial activity against Escherichia coli ATCC 25922 incubated for 16 to 18 hrs by broth microdilution assay; type: functional
Pseudomonas aeruginosa = assay: Antibacterial activity against Pseudomonas aeruginosa ATCC 27853 incubated for 16 to 18 hrs by broth microdilution assay; type: functional
[2] = tested on: Mycobacterium tuberculosis; assay: Antitubercular activity against Mycobacterium tuberculosis H37Rv after 7 days by resazurin dye based assay; type: functional; settings: 168 h
[3] = Cytotoxicity against African green monkey Vero cells assessed as reduction in cell viability after 72 hrs by MTT assay; type: cell-based; settings: chlorocebus sabaeus
[4] = Selectivity index, ratio of CC50 for African green monkey Vero cells to MIC for Mycobacterium tuberculosis H37Rv; type: toxicity; settings: read-out: Selectivity Index
Staphylococcus aureus [5] = assay: Antibacterial activity against vancomycin-resistant Staphylococcus aureus VRS12 incubated for 16 to 18 hrs by broth microdilution assay; type: functional
Staphylococcus aureus [6] = assay: Antibacterial activity against vancomycin-resistant Staphylococcus aureus VRS4 incubated for 16 to 18 hrs by broth microdilution assay; type: functional
Staphylococcus aureus [7] = assay: Antibacterial activity against vancomycin-resistant Staphylococcus aureus VRS1 incubated for 16 to 18 hrs by broth microdilution assay; type: functional
Staphylococcus aureus [8] = assay: Antibacterial activity against Staphylococcus aureus ATCC 29213 assessed as time required to increase 1 log10 CFU at MIC incubated for 1 hr followed by compound washout and measured at 1 hr intervals (reference value: 2 hrs); type: functional
Staphylococcus aureus [9] = assay: Antibacterial activity against Staphylococcus aureus ATCC 29213 assessed as time required to increase 1 log10 CFU at 10 times MIC incubated for 1 hr followed by compound washout and measured at 1 hr intervals (reference value: 2 hrs); type: functional
Staphylococcus aureus [10] = assay: Antibacterial activity against Staphylococcus aureus ATCC 29213 assessed as post antibiotic effect time at MIC incubated for 1 hr followed by compound washout and measured at 1 hr intervals (reference value: 0 hrs); type: functional
Staphylococcus aureus [11] = assay: Antibacterial activity against Staphylococcus aureus ATCC 29213 assessed as post antibiotic effect time at 10 times MIC incubated for 1 hr followed by compound washout and measured at 1 hr intervals (reference value: 0 hrs); type: functional
Staphylococcus aureus [12] = assay: Antibiofilm activity against Staphylococcus aureus ATCC 29213 at 10 times MIC incubated 48 hrs by crystal violet staining based assay relative to control; type: functional
Staphylococcus aureus [13] = assay: Antimicrobial activity against Staphylococcus aureus ATCC 29213 infected in BALB/c mouse model of neutropenic thigh infection assessed reduction in bacterial levels in thigh at 25 mg/kg, ip administered 3 hrs post infection twice at interval of 3 hrs between injections and measured after 24 hrs; type: functional, organism-based
Staphylococcus aureus [14] = assay: Antibacterial activity against methicillin-resistant Staphylococcus aureus NR10194 incubated for 16 to 18 hrs by broth microdilution assay; type: functional
Staphylococcus aureus [15] = assay: Antibacterial activity against methicillin-resistant Staphylococcus aureus NR10191 incubated for 16 to 18 hrs by broth microdilution assay; type: functional
Staphylococcus aureus [16] = assay: Antibacterial activity against methicillin-resistant Staphylococcus aureus NR10193 incubated for 16 to 18 hrs by broth microdilution assay; type: functional
Staphylococcus aureus [17] = assay: Antibacterial activity against methicillin-resistant Staphylococcus aureus NR10186 incubated for 16 to 18 hrs by broth microdilution assay; type: functional
Staphylococcus aureus [18] = assay: Antibacterial activity against methicillin-resistant Staphylococcus aureus NR100 incubated for 16 to 18 hrs by broth microdilution assay; type: functional
Staphylococcus aureus [19] = assay: Antibacterial activity against methicillin-resistant Staphylococcus aureus NR10192 incubated for 16 to 18 hrs by broth microdilution assay; type: functional
Staphylococcus aureus [20] = assay: Antibacterial activity against methicillin-resistant Staphylococcus aureus NR119 incubated for 16 to 18 hrs by broth microdilution assay; type: functional
Staphylococcus aureus [21] = assay: Antibacterial activity against methicillin-resistant Staphylococcus aureus NR10129 incubated for 16 to 18 hrs by broth microdilution assay; type: functional
Staphylococcus aureus [22] = assay: Antibacterial activity against methicillin-resistant Staphylococcus aureus NR10198 incubated for 16 to 18 hrs by broth microdilution assay; type: functional
Staphylococcus aureus [23] = assay: Antibacterial activity against methicillin-susceptible Staphylococcus aureus ATCC 29213 incubated for 16 to 18 hrs by broth microdilution assay; type: functional
[24] = Selectivity index, ratio of CC50 for African green monkey Vero cells to MIC for Staphylococcus aureus ATCC 29213; type: toxicity; settings: read-out: Selectivity Index

| SMILES | MIC (Acinetobacter baumannii) | MIC (Klebsiella pneumoniae) | MIC (Staphylococcus aureus [1]) | MIC (Escherichia coli) | MIC (Pseudomonas aeruginosa) | MIC [2] | CC50 at 72 h [3] | selectivity ratio [4] | other results |
| --- | --- | --- | --- | --- | --- | --- | --- | --- | --- |
| Cc1nc2cc(-c3ccccc3)ccc2c(=O)n1-c1cccc(Cl)c1 | > 64 µg/mL | > 64 µg/mL | > 64 µg/mL | > 64 µg/mL | > 64 µg/mL | 16 µg/mL (≈ 46.1 µM) | 12.5 µg/mL (≈ 36 µM) | 0.78 |  |
| CN[C@H](CC(C)C)C(=O)N[C@H]1C(=O)N[C@@H](CC(N)=O)C(=O)N[C@H]2C(=O)N[C@H]3C(=O)N[C@H](C(=O)N[C@H](C(=O)O)c4cc(O)cc(O)c4-c4cc3ccc4O)[C@H](O)c3ccc(c(Cl)c3)Oc3cc2cc(c3O[C@@H]2O[C@H](CO)[C@@H](O)[C@H](O)[C@H]2O[C@H]2C[C@](C)(N)[C@H](O)[C@H](C)O2)Oc2ccc(cc2Cl)[C@H]1O [VANCOMYCIN] |  |  |  |  |  |  |  |  | MIC (Staphylococcus aureus [5]): > 64 µg/mL; MIC (Staphylococcus aureus [6]): > 64 µg/mL; MIC (Staphylococcus aureus [7]): > 64 µg/mL; Time (Staphylococcus aureus [8]): 3 h; Time (Staphylococcus aureus [9]): 4 h; Time (Staphylococcus aureus [10]): 1 h; Time (Staphylococcus aureus [11]): 2 h; Activity (Staphylococcus aureus [12]): 7.7%; Activity (Staphylococcus aureus [13]): Active |
| C[C@H]1COc2c(N3CCN(C)CC3)c(F)cc3c(=O)c(C(=O)O)cn1c23.C[C@H]1COc2c(N3CCN(C)CC3)c(F)cc3c(=O)c(C(=O)O)cn1c23.O [LEVOFLOXACIN] |  | 64 µg/mL | 0.125 to 0.25 µg/mL |  | 0.5 µg/mL |  |  |  | MIC (Staphylococcus aureus [5]): 32 to 64 µg/mL; MIC (Staphylococcus aureus [6]): > 64 µg/mL; MIC (Staphylococcus aureus [7]): 32 µg/mL; MIC (Staphylococcus aureus [14]): 0.5 µg/mL; MIC (Staphylococcus aureus [15]): 16 to 32 µg/mL; MIC (Staphylococcus aureus [16]): 32 µg/mL; MIC (Staphylococcus aureus [17]): 4 to 8 µg/mL; MIC (Staphylococcus aureus [18]): < 0.5 µg/mL; MIC (Staphylococcus aureus [19]): 4 to 8 µg/mL; MIC (Staphylococcus aureus [20]): 16 µg/mL; MIC (Staphylococcus aureus [21]): 0.5 µg/mL; MIC (Staphylococcus aureus [22]): 32 µg/mL; MIC (Staphylococcus aureus [23]): < 0.5 µg/mL; Time (Staphylococcus aureus [8]): 3 h; Time (Staphylococcus aureus [9]): 3 h; Time (Staphylococcus aureus [10]): 1 h; Time (Staphylococcus aureus [11]): 1 h; Activity (Staphylococcus aureus [12]): 30.6% |
| Cc1nc2cc(-c3ccc(F)cc3)ccc2c(=O)n1-c1cccc(Cl)c1 | > 64 µg/mL | > 64 µg/mL | > 64 µg/mL | > 64 µg/mL | > 64 µg/mL | 16 µg/mL (≈ 43.9 µM) | > 15 µg/mL | > 0.93 |  |
| C[C@@H](O)[C@H]1C(=O)N2C(C(=O)O)=C(S[C@@H]3CN[C@H](C(=O)N(C)C)C3)[C@H](C)[C@H]12 [MEROPENEM] |  |  | 0.25 µg/mL (≈ 0.652 µM) |  |  |  |  |  | MIC (Staphylococcus aureus [5]): > 64 µg/mL; MIC (Staphylococcus aureus [6]): > 64 µg/mL; MIC (Staphylococcus aureus [7]): > 64 µg/mL; MIC (Staphylococcus aureus [14]): 0.5 µg/mL (≈ 1.3 µM); MIC (Staphylococcus aureus [15]): > 64 µg/mL; MIC (Staphylococcus aureus [16]): 32 µg/mL (≈ 83.4 µM); MIC (Staphylococcus aureus [17]): 16 to 32 µg/mL (≈ 41.7 to 83.4 µM); MIC (Staphylococcus aureus [18]): > 64 µg/mL; MIC (Staphylococcus aureus [19]): 4 to 8 µg/mL (≈ 10.4 to 20.9 µM); MIC (Staphylococcus aureus [20]): > 64 µg/mL; MIC (Staphylococcus aureus [21]): 16 µg/mL (≈ 41.7 µM); MIC (Staphylococcus aureus [22]): 32 µg/mL (≈ 83.4 µM); MIC (Staphylococcus aureus [23]): < 0.5 µg/mL |
| C#Cc1cccc(-n2c(/C=C/c3ccc(C#N)cc3)nc3cccc(F)c3c2=O)c1 | > 64 µg/mL | > 64 µg/mL | 0.25 µg/mL (≈ 0.639 µM) | > 64 µg/mL | > 64 µg/mL | > 64 µg/mL | > 10 µg/mL |  | selectivity ratio [24]: > 40 |
| N#Cc1ccc(/C=C/c2nc3ncccc3c(=O)n2-c2ccc(S)cc2)cc1 | > 64 µg/mL | > 64 µg/mL | 2 µg/mL (≈ 5.23 µM) | > 64 µg/mL | > 64 µg/mL | > 64 µg/mL | > 10 µg/mL |  | selectivity ratio [24]: > 5 |
| Cc1nc2ccc(OCc3cn(-c4ccc(Cl)cc4)nn3)cc2c(=O)n1-c1ccccc1 | > 64 µg/mL | > 64 µg/mL | > 64 µg/mL | > 64 µg/mL | > 64 µg/mL | 16 µg/mL (≈ 36 µM) | > 33.3 µg/mL | > 2.08 |  |
| Cc1nc2ccc(OCc3cn(-c4cccc(Cl)c4)nn3)cc2c(=O)n1-c1ccccc1 | > 64 µg/mL | > 64 µg/mL | > 64 µg/mL | > 64 µg/mL | > 64 µg/mL | 16 µg/mL (≈ 36 µM) | > 100 µg/mL | > 6.25 |  |
| C#CCOc1cccc(-n2c(/C=C/c3ccc(C#N)cc3)nc3cccc(F)c3c2=O)c1 | > 64 µg/mL | > 64 µg/mL | 0.5 µg/mL (≈ 1.19 µM) | > 64 µg/mL | > 64 µg/mL | 2 µg/mL (≈ 4.75 µM) | 5 to 10 µg/mL (≈ 11.9 to 23.7 µM) | > 5 | selectivity ratio [24]: > 10 |
| N#Cc1ccc(/C=C/c2nc3ccc(OCc4cn(-c5cccc(Cl)c5)nn4)cc3c(=O)n2Cc2ccccc2)cc1 | > 64 µg/mL | > 64 µg/mL | > 64 µg/mL | > 64 µg/mL | > 64 µg/mL | > 64 µg/mL |  |  |  |
| Cc1nc2cc(-n3cc(COc4ccccc4)nn3)ccc2c(=O)n1-c1ccccc1 | > 64 µg/mL | > 64 µg/mL | > 64 µg/mL | > 64 µg/mL | > 64 µg/mL | > 64 µg/mL |  |  |  |
| Cc1nc2ccc(-c3ccccc3)cc2c(=O)n1-c1ccccc1 | > 64 µg/mL | > 64 µg/mL | > 64 µg/mL | > 64 µg/mL | > 64 µg/mL | > 64 µg/mL |  |  |  |
| N#Cc1ccc(/C=C/c2nc3cccc(F)c3c(=O)n2-c2cccc(C#N)c2)cc1 | > 64 µg/mL | > 64 µg/mL | 32 µg/mL (≈ 81.6 µM) | > 64 µg/mL | > 64 µg/mL | > 64 µg/mL |  |  |  |
| C#CCNc1ccc2c(=O)n(-c3ccccc3)c(C)nc2c1 | > 64 µg/mL | > 64 µg/mL | > 64 µg/mL | > 64 µg/mL | > 64 µg/mL | 4 µg/mL (≈ 13.8 µM) | > 100 µg/mL | > 25 |  |
